Assay results published in ChEMBL document CHEMBL2177093, “The design and identification of brain penetrant inhibitors of phosphoinositide 3-kinase α” (J Med Chem, 2012).
Calls of active or inactive are those of the source. No cut-off for these calls is given here.

How the values were obtained:
[1] = Ratio of drug level in brain to plasma in CD-1 mouse at 10 mg/kg, po measured at 0.5 hrs; assay type: ADME, organism-based; design: dose 10 mg/kg, route oral; details: read-out: BPR
[2] = in vitro; details: human, liver microsomes
[3] = Ratio of drug level in brain to plasma in CD-1 mouse at 20 mg/kg, po measured at 1 hr; assay type: ADME, organism-based; design: dose 20 mg/kg, route oral; details: read-out: BPR
[4] = Clearance in rat; assay type: ADME, organism-based; details: in vivo
[5] = Half life in po dosed CD-1 mouse; assay type: ADME, organism-based; details: in vivo
[6] = Ratio of drug level in brain to plasma in CD-1 mouse at 25 mg/kg, po at 6 hrs; assay type: ADME, organism-based; design: dose 25 mg/kg, route oral; details: read-out: BPR
[7] = Ratio of drug level in brain to plasma in CD-1 mouse at 25 mg/kg, po at 1 hr; assay type: ADME, organism-based; design: dose 25 mg/kg, route oral; details: read-out: BPR
[8] = test system: mouse Bcrp1; test: in vitro; details: dog
[9] = target: Serine/threonine-protein kinase mTOR (Homo sapiens, UniProt P42345); test: Inhibition of human recombinant mTOR (1360 to 2549 amino acids) assessed as reduction in phosphorylation of (GFP)-4-EBP1 after 30 mins by FRET assay; details: read-out: Ki(app)
[10] = Plasma protein binding in CD-1 mouse; assay type: ADME, cell-free; details: read-out: PPB (converted)
[11] = Oral bioavailability in CD-1 mouse; assay type: ADME, organism-based; details: in vivo
[12] = Clearance in po dosed CD-1 mouse; assay type: ADME, organism-based; details: in vivo
[13] = species: Mus musculus; details: NCr, U-87MG ATCC, 40 mg/kg
[14] = Drug level in CD-1 mouse brain at 25 mg/kg, po administered as single dose measured after 1 hr post dose; assay type: ADME, organism-based; design: dose 25 mg/kg, route oral; details: read-out: Drug uptake
[15] = Toxicity in PTEN deficient human U87MG cells xenografted in NCr nude mouse at dosed orally once daily for 24 days; assay type: organism-based, U-87MG ATCC; details: in vivo, po
[16] = Drug level in CD-1 mouse brain at 25 mg/kg, po administered as single dose measured after 6 hrs post dose; assay type: ADME, organism-based; design: dose 25 mg/kg, route oral; details: read-out: Drug uptake
[17] = test system: Mus musculus; test: Toxicity in PTEN deficient human U87MG cells xenografted in NCr nude mouse assessed as loss in body weight at 18 mg/kg, po qd for 24 days; assay type: organism-based, U-87MG ATCC; design: dose 18 mg/kg, route oral; details: in vivo, 576 h
[18] = test system: Mus musculus; test: Toxicity in PTEN deficient human U87MG cells xenografted in NCr nude mouse assessed as loss in body weight at 6 mg/kg, po qd for 24 days; assay type: organism-based, U-87MG ATCC; design: dose 6 mg/kg, route oral; details: in vivo, 576 h
[19] = Cytotoxicity against human U87MG cells incubated for 4 days; assay type: functional, cell-based, U-87MG ATCC; details: U-87 MG, 96 h
[20] = species: Mus musculus; details: NCr, U-87MG ATCC, 10 mg/kg
[21] = species: Mus musculus; details: NCr, U-87MG ATCC, 10 mg/kg; remark: listed apart in the source
[22] = test system: SF-268; test: Cytotoxicity against human SF268 cells incubated for 4 days; assay type: functional, cell-based; details: SF-268, 96 h
[23] = test system: U-87MG ATCC; test: Antitumor activity against PTEN deficient human U87MG cells xenografted in NCr nude mouse assessed as inhibition of tumor growth at 3 to 14 mg/kg, po qd for 24 days; assay type: functional, organism-based
[24] = test system: Mus musculus; test: Toxicity in PTEN deficient human U87MG cells xenografted in NCr nude mouse assessed as loss in body weight at 14 mg/kg, po qd for 24 days; assay type: organism-based, U-87MG ATCC; design: dose 14 mg/kg, route oral; details: in vivo, 576 h
[25] = test system: SF-539; test: Cytotoxicity against human SF539 cells incubated for 4 days; assay type: functional, cell-based; details: SF-539, 96 h
[26] = test system: Mus musculus; test: Inhibition of PI3K signaling in CD-1 mouse assessed as reduction in pAKT level at 25 mg/kg, po administered as single dose measured after 1 hr post dose by immunoblotting method; assay type: functional; details: CD-1, 1 h
[27] = Cytotoxicity against human LN229 cells incubated for 4 days; assay type: functional, cell-based; details: LN-229, 96 h
[28] = Cytotoxicity against human A172 cells incubated for 4 days; assay type: functional, cell-based; details: A 172, 96 h
[29] = Cytotoxicity against human Hs683 cells incubated for 4 days; assay type: functional, cell-based; details: Hs 683, 96 h
[30] = species: Mus musculus; details: NCr, U-87MG ATCC, 3 mg/kg
[31] = test system: M059J; test: Cytotoxicity against human M059J cells incubated for 4 days; assay type: functional, cell-based; details: 96 h
[32] = species: Mus musculus; details: NCr, U-87MG ATCC, 40 mg/kg; remark: listed apart in the source
[33] = species: Mus musculus; details: NCr, U-87MG ATCC, 3 mg/kg; remark: listed apart in the source
[34] = test system: Mus musculus; test: Toxicity in PTEN deficient human U87MG cells xenografted in NCr nude mouse assessed as loss in body weight at 50 mg/kg, po qd for 24 days; assay type: organism-based, U-87MG ATCC; design: dose 50 mg/kg, route oral; details: in vivo, 576 h
[35] = test system: Mus musculus; test: Inhibition of PI3K signaling in CD-1 mouse assessed as reduction in pAKT level at 50 mg/kg, po administered as single dose measured after 6 hrs post dose by immunoblotting method; assay type: functional; details: CD-1, 6 h
[36] = Drug level in CD-1 mouse brain at 50 mg/kg, po administered as single dose measured after 1 hr post dose; assay type: ADME, organism-based; design: dose 50 mg/kg, route oral; details: read-out: Drug uptake
[37] = Ratio of drug level in brain to plasma in CD-1 mouse at 50 mg/kg, po at 1 hr; assay type: ADME, organism-based; design: dose 50 mg/kg, route oral; details: read-out: BPR
[38] = Drug level in CD-1 mouse brain at 50 mg/kg, po administered as single dose measured after 6 hrs post dose; assay type: ADME, organism-based; design: dose 50 mg/kg, route oral; details: read-out: Drug uptake
[39] = Ratio of drug level in brain to plasma in CD-1 mouse at 50 mg/kg, po at 6 hrs; assay type: ADME, organism-based; design: dose 50 mg/kg, route oral; details: read-out: BPR
[40] = Antitumor activity in PTEN deficient human U87MG cells xenografted in NCr nude mouse assessed as loss in body weight at 40 mg/kg, po after 24 days; assay type: functional, U-87MG ATCC
[41] = Drug uptake in NCr nude mouse brain xenografted with PTEN deficient human U87MG cells at 40 mg/kg after 1 hr; assay type: ADME, organism-based, U-87MG ATCC; design: dose 40 mg/kg; details: read-out: Drug uptake
[42] = test system: Mus musculus; test: Inhibition of PI3K signaling in CD-1 mouse assessed as reduction in pAKT level at 50 mg/kg, po administered as single dose measured after 1 hr post dose by immunoblotting method; assay type: functional; details: CD-1, 1 h
[43] = test system: Mus musculus; test: Toxicity in PTEN deficient human U87MG cells xenografted in NCr nude mouse assessed as loss in body weight at 30 mg/kg, po qd for 24 days; assay type: organism-based, U-87MG ATCC; design: dose 30 mg/kg, route oral; details: in vivo, 576 h
[44] = Drug uptake in healthy mouse brain at 50 mg/kg after 1 hr; assay type: ADME, organism-based; design: dose 50 mg/kg; details: read-out: Drug uptake
[45] = target: Phosphatidylinositol 4-phosphate 3-kinase C2 domain-containing subunit beta (Homo sapiens) (UniProt O00750); test: Inhibition of PI3KC2beta at 1 uM
Phosphatidylinositol 4-phosphate 3-kinase C2 domain-containing subunit beta (Homo sapiens), sequence (O00750 whole entry, the tested form may be a part): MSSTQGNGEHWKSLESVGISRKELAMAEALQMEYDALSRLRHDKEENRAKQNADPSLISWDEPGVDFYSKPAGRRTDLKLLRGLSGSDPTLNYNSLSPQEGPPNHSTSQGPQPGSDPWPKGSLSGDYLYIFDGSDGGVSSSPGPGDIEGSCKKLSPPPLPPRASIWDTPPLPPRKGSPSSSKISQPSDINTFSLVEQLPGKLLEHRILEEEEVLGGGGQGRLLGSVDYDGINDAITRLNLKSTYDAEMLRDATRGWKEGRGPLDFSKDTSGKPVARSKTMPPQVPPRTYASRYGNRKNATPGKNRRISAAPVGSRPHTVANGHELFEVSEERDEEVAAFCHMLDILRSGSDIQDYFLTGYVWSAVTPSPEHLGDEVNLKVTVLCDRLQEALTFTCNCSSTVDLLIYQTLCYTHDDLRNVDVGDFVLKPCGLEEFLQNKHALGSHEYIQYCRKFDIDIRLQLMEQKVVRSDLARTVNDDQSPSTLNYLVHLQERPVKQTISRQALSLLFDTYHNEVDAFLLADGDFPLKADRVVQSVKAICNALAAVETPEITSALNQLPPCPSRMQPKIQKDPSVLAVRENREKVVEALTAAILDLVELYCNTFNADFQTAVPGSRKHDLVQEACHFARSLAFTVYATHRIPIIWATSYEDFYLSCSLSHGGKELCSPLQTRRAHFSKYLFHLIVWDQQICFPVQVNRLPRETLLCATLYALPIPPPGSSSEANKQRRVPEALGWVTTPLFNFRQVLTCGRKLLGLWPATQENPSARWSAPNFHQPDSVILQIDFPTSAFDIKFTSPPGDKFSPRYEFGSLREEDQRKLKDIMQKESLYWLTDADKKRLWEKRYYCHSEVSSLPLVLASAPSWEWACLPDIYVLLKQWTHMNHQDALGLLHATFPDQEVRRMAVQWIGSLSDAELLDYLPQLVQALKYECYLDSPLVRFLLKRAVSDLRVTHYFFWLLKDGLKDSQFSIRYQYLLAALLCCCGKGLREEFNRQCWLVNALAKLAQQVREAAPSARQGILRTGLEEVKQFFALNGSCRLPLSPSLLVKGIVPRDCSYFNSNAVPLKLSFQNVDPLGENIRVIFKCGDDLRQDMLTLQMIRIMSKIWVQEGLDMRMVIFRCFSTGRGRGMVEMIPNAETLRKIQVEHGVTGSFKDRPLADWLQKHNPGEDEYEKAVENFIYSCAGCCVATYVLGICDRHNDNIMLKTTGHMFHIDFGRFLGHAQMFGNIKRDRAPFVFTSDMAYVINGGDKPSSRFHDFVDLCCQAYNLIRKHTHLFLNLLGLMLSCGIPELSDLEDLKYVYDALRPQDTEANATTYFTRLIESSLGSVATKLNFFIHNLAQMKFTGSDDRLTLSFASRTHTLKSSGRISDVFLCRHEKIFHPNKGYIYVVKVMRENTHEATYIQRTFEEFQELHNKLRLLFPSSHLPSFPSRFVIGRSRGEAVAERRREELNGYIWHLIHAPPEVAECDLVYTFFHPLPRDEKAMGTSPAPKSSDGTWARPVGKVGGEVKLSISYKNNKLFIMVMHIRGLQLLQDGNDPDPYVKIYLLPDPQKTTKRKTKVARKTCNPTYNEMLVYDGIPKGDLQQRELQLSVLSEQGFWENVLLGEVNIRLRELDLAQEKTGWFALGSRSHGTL

**Q.** Which Kp at 0.5 h [1] does the source give for CS(=O)(=O)N1CCN(Cc2cc3nc(-c4cccc5[nH]ncc45)nc(N4CCOCC4)c3s2)CC1 [PICTILISIB] here?
**A.** < 0.05

**Q.** For Cc1c(CN2CCN(C(=O)[C@H](C)O)CC2)sc2c(N3CCOCC3)nc(-c3cnc(N)nc3)nc12 [APITOLISIB], which CLhep predicted [2] is on record?
**A.** 3 mL/min/kg

**Q.** What about the Kp at 1 h [3] of the same molecule?
**A.** < 0.1

**Q.** What about the clearance [4] of the same molecule?
**A.** 3 mL/min/kg

**Q.** Which results are given for CC1(C)COC1c1cc2nc(-c3cnc(N)nc3)nc(N3CCOCC3)c2s1 (stereo not drawn)?
**A.** half-life [5]: 3.3 h; Kp at 6 h [6]: 1.2; Kp at 1 h [7]: 0.9; efflux ratio at 2 h, 5 µM [8]: 1.2; Ki [9]: 21 nM; fraction unbound [10]: 0.087; bioavailability [11]: 46%; CL/F [12]: 52 mL/min/kg

**Q.** Which half-life [5] does the source give for COC(C)(C)c1cc2nc(-c3cnc(N)nc3)nc(N3CCOCC3)c2s1 here?
**A.** 20 h

**Q.** What about the inhibition [13] of the same molecule?
**A.** Active

**Q.** And the concentration at 1 h [14]?
**A.** 2140 nM

**Q.** What about the MTD at 576 h [15] of the same molecule?
**A.** 14 mg/kg

**Q.** And the concentration at 6 h [16]?
**A.** 350 nM

**Q.** What about the Activity [17] of the same molecule?
**A.** Toxic

**Q.** And the Activity [18]?
**A.** Non-toxic

**Q.** And the EC50 [19]?
**A.** 290 nM

**Q.** What about the inhibition [20] of the same molecule?
**A.** Active

**Q.** What about the inhibition [21] of the same molecule?
**A.** Active

**Q.** What about the Kp at 6 h [6] of the same molecule?
**A.** 0.9

**Q.** And the EC50 [22]?
**A.** 1000 nM

**Q.** What about the Kp at 1 h [7] of the same molecule?
**A.** 1

**Q.** What about the TGI [23] of the same molecule?
**A.** Dose-dependent effect

**Q.** And the Activity [24]?
**A.** < 15%

**Q.** And the EC50 [25]?
**A.** 340 nM

**Q.** What about the inhibition in vivo at 25 mg/kg [26] of the same molecule?
**A.** 39%

**Q.** What about the EC50 [27] of the same molecule?
**A.** 400 nM

**Q.** And the EC50 [28]?
**A.** 380 nM

**Q.** What about the EC50 [29] of the same molecule?
**A.** 270 nM

**Q.** And the fraction unbound [10]?
**A.** 0.102

**Q.** And the inhibition [30]?
**A.** Active

**Q.** And the bioavailability [11]?
**A.** 25%

**Q.** What about the EC50 [31] of the same molecule?
**A.** 590 nM

**Q.** And the inhibition [32]?
**A.** Active

**Q.** And the CL/F [12]?
**A.** 20 mL/min/kg

**Q.** What about the inhibition [33] of the same molecule?
**A.** Active

**Q.** What does the source list for COC1(c2sc3c(N4CCOCC4)nc(-c4cnc(N)nc4)nc3c2C)COC1?
**A.** half-life [5]: 17 h; inhibition [13]: Active; MTD at 576 h [15]: 40 mg/kg; Activity [34]: > 15%; inhibition in vivo at 50 mg/kg [35]: 31%; EC50 [19]: 250 nM; concentration at 1 h [36]: 3640 nM; Kp at 1 h [37]: 1; inhibition [20]: Active; inhibition [21]: Active; concentration at 6 h [38]: 2310 nM; EC50 [22]: 570 nM; Kp at 6 h [39]: 1; TGI [23]: Dose-dependent effect; Activity [40]: <15%; concentration at 1 h [41]: 2200 nM; EC50 [25]: 250 nM; inhibition in vivo at 50 mg/kg [42]: 62%; EC50 [27]: 140 nM; EC50 [28]: 240 nM; Activity [43]: Non-toxic; concentration at 1 h [44]: 3600 nM; EC50 [29]: 230 nM; fraction unbound [10]: 0.15; inhibition [30]: Active; bioavailability [11]: 75%; EC50 [31]: 330 nM; inhibition [45]: 77%; inhibition [32]: Active; CL/F [12]: 32 mL/min/kg; inhibition [33]: Active

**Q.** With COCCOC1(c2cc3nc(-c4cnc(N)nc4)nc(N4CCOCC4)c3s2)COC1 as the molecule, how does the efflux ratio at 2 h, 5 µM [8] read?
**A.** 1.4

**Q.** With CC(F)(F)c1cc2nc(-c3cnc(N)nc3)nc(N3CCOCC3)c2s1 as the molecule, how does the efflux ratio at 2 h, 5 µM [8] read?
**A.** 1.7

**Q.** With Cc1c(C2(O)COC2)sc2c(N3CCOCC3)nc(-c3cnc(N)nc3)nc12 as the molecule, how does the efflux ratio at 2 h, 5 µM [8] read?
**A.** 7.1
